Measurements published in patent US20070197485A1, “Therapy and Use of Compounds in Therapy” (MAX-DELBRUECK-CENTRUM FUR MOLEKULARE MEDIZIN, priority 1999, published 2007).

Tests used:
[1] = system: TNF production in whole blood of patients with cachexia; assay: Milenia whole blood assay, TNF production (in vitro addition of UDCA / BPi); assay type: cell-based, human
Procedure: (§1) We have tested the ability of ursodeoxycholic acid (UDCA, FALK Pharma GmbH) and BPi to inhibit LPS-mediated TNF production in whole blood of patients with cachexia. We studied 4 patients with cachexia due to liver cirrhosis. The patients had all weight loss >7.5% compared to their previous normal weight. […] All patients were studied twice on 2 subsequent days (day “−1” and day “0”), see FIG. 9 to 12.
(§2) Methods: Heparinized whole blood was diluted 1:10 with medium ±LPS (50 μg/ml), ±BPi (1 μg/ml), and ±UDCA (1 μg/ml-1 mg/ml) according to the manufacturer's recommendation (Milenia whole blood assay; DPC Biermann, Bad Nauheim, Germany) and incubated for 4 hours at 37° C. In the supernatant, we assessed concentrations of TNF and IL-6 using the semiautomated Immulite system (DPC-Biermann, Bad Nauheim, Germany).

[2] = system: whole blood TNF production; assay: Whole blood TNF production after therapeutic application of UDCA; assay type: in vivo, human; details: patient 4; after 2 days of UDCA treatment, 3 times 250 mg daily
Procedure: (§3) We have tested the ability of the therapeutic application of ursodeoxycholic acid (UDCA, FALK Pharma GmbH) to lower plasma levels of TNF and IL6 and to lower spontaneous and LPS-stimulated whole blood cytokine production in patients with cachexia.
(§4) We studied in 2 patients with cachexia due to liver cirrhosis plasma cytokine levels after treatment with 3 times 250 mg daily UDCA (FALK Pharma GmbH). The patients had weight loss >7.5% compared to their previous normal weight. The patients were studied at baseline prior to the treatment on 2 subsequent days (day ”−1” and day “0”), and then they were restudied on day 1 (“1”), day 2 (“2”), and day 5 (“5”), see FIGS. 9 and 12.
as §2, with “pg/ml), ±BPI” for “μg/ml), ±BPi”, “ug/ml),” for “μg/ml),”, “ug/ml-1” for “μg/ml-1”, “supernatant and in plasma,” for “supernatant,”

[3] = system: IL6 production in whole blood of patients with cachexia; assay: Milenia whole blood assay, IL6 production (in vitro addition of UDCA / BPi); assay type: cell-based, human
Description: as §1
[…] In the supernatant, we assessed concentrations of TNF and IL-6 using the semiautomated Immulite system (DPC-Biermann, Bad Nauheim, Germany).

[4] = system: whole blood IL6 production; assay: Whole blood IL6 production after therapeutic application of UDCA; assay type: in vivo, human; details: patient 4; after 2 days of UDCA treatment, 3 times 250 mg daily
Procedure: as §3, §4
as §2, with “pg/ml), ±BPI” for “μg/ml), ±BPi”, “ug/ml),” for “μg/ml),”, “ug/ml-1” for “μg/ml-1”, “supernatant and in plasma,” for “supernatant,”

[5] = system: monocyte generated cytokine production in response to LPS; details: in vitro, in the concentrations used; cited from earlier work
[6] = system: LPS-induced TNF-α release; assay: LPS-induced TNF-α release with lipoproteins / LBP (FIG. 4 to 7); assay type: cell-based; details: addition of LBP to a lipoprotein containing serum (FIG. 7)
[7] = 100 ug/ml UDCA, whole blood of patients with cachexia due to liver cirrhosis, 4 hours at 37° C
[8] = 1 mg/ml UDCA, whole blood of patients with cachexia due to liver cirrhosis diluted 1:10, 4 hours at 37° C, on average
[9] = BPi 1 ug/ml, in 6 of 8 experiments, or towards non-detectability, 2 cases stable, p<0.05
[10] = BPi 1 ug/ml, whole blood of patients with cachexia due to liver cirrhosis, no LPS

## C[C@H](CCC(=O)O)[C@H]1CC[C@H]2[C@@H]3[C@@H](O)C[C@@H]4C[C@H](O)CC[C@]4(C)[C@H]3CC[C@]12C [UDCA, ursodeoxycholic acid]
[1]; [7]
  reduction of LPS-stimulated TNF production: 42%
[1]; [8]
  reduction of LPS-stimulated TNF production: > 99%
[2]
  LPS-stimulated TNF production lowered: 43.5%
[3]; [7]
  reduction of LPS-stimulated IL6 production: 13%
[3]; [8]
  reduction of LPS-stimulated IL6 production: 97%
[4]
  LPS-stimulated IL6 production lowered: 39.6%

## C[C@H](CCC(=O)O)[C@H]1CC[C@H]2[C@@H]3[C@H](O)C[C@@H]4C[C@H](O)CC[C@]4(C)[C@H]3CC[C@]12C [chenodeoxycholic acid]
[5]
  effect on monocyte generated cytokine production in response to LPS: less effective

B1: LBP: LPS binding protein (protein, UniProt P18428 26-481, looked up)
Lipopolysaccharide-binding …: ANPGLVARITDKGLQYAAQEGLLALQSELLRITLPDFTGDLRIPHVGRGRYEFHSLNIHSCELLHSALRPVPGQGLSLSISDSSIRVQGRWKVRKSFFKLQGSFDVSVKGISISVNLLLGSESSGRPTVTASSCSSDIADVEVDMSGDLGWLLNLFHNQIESKFQKVLESRICEMIQKSVSSDLQPYLQTLPVTTEIDSFADIDYSLVEAPRATAQMLEVMFKGEIFHRNHRSPVTLLAAVMSLPEEHNKMVYFAISDYVFNTASLVYHEEGYLNFSITDDMIPPDSNIRLTTKSFRPFVPRLARLYPNMNLELQGSVPSAPLLNFSPGNLSVDPYMEIDAFVLLPSSSKEPVFRLSVATNVSATLTFNTSKITGFLKPGKVKVELKESKVGLFNAELLEALLNYYILNTFYPKFNDKLAEGFPLPLLKRVQLYDLGLQIHKDFLFLGANVQYMRV
[6]
  LPS-mediated TNF-α production: reduced

B2: BPi: BPi, agent tested to inhibit LPS-mediated TNF production in whole blood; not spelled out in the text (protein, UniProt P17213 32-487, looked up)
Bactericidal …: VNPGVVVRISQKGLDYASQQGTAALQKELKRIKIPDYSDSFKIKHLGKGHYSFYSMDIREFQLPSSQISMVPNVGLKFSISNANIKISGKWKAQKRFLKMSGNFDLSIEGMSISADLKLGSNPTSGKPTITCSSCSSHINSVHVHISKSKVGWLIQLFHKKIESALRNKMNSQVCEKVTNSVSSELQPYFQTLPVMTKIDSVAGINYGLVAPPATTAETLDVQMKGEFYSENHHNPPPFAPPVMEFPAAHDRMVYLGLSDYFFNTAGLVYQEAGVLKMTLRDDMIPKESKFRLTTKFFGTFLPEVAKKFPNMKIQIHVSASTPPHLSVQPTGLTFYPAVDVQAFAVLPNSSLASLFLIGMHTTGSMEVSAESNRLVGELKLDRLLLELKHSNIGPFPVELLQDIMNYIVPILVLPRVNEKLQKGFPLPTPARVQLYNVVLQPHQNFLLFGADVVYK
[1]; [9]
  lowering of spontaneous TNF levels: at least 5 pg/mi
[1]; [10]
  spontaneous production of TNF: reduced significantly
[3]; [9]
  lowering of spontaneous IL6 levels: at least 5 pg/mi
[3]; [10]
  spontaneous production of IL6: reduced significantly
